These compounds were tested against T1, 5-HT1A (Rattus norvegicus, UniProt P19327) (assay: Inhibition of 5-methoxy-N,N-dimethyltryptamine (5-MeODMT) induced 5-HT syndrome in rats). Conditions: rat, sc.
T1 sequence (P19327 1-422): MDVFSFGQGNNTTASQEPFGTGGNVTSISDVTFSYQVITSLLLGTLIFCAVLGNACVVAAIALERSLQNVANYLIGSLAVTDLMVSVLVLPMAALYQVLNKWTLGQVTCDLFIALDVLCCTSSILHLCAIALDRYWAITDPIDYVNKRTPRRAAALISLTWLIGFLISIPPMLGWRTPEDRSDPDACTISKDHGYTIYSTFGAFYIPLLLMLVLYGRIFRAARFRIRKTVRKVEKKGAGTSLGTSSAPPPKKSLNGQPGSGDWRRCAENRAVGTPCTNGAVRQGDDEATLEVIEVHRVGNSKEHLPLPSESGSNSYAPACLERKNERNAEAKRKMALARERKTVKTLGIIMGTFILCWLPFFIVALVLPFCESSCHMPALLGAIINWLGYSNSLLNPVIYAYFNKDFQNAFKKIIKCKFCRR
Assay type: in vivo, Male Wistar rats
Parameters: Male Wistar rats (Mol:Wist) weighing 170-240 g are used; from tissue; host or cells: whole living animal, male Wistar rats (Mol:Wist), s.c. dosing
Description: INHIBITION OF 5-METHOXY-N,N-[…] INDUCED 5-HT SYNDROME IN RATS
The so-called 5-HT syndrome is a characteristic behaviour pattern which is induced by 5-HT agonists with effects on 5-HT, possibly 5-HT1A receptors, although lack of specific antagonists make it difficult to evaluate specificity (Smith, L. M. and S. J. Peroutka, Pharmacol. Biochem. & Behaviour 24, 1513-1519, 1986; Tricklebank, M. et al., Eur. J. Pharmacol. 117, 15-24, 1985).
Male Wistar rats (Mol:Wist) weighing 170-240 g are used. Test substrate is injected subcutaneously 30 min. before 5-methoxy-N,N-dimethyltryptamine 5 mg/kg, s.c. Four rats are used for each dose. A control group pretreated with saline is included each test day. Ten, 15 and 20 min later the rats are observed for presence of serotonin (5-HT) syndrome: (1) forepaw treading ("piano playing"), (2) head weaving and (3) hindleg abduction. Further, flat motility is scored. Each part of the syndrome is scored as follows: marked effect (score 2), weak syndrome (score 1) and no effect (score 0). The scores of the three observation times are added. Thus the maximum obtainable score for four rats is 24. The effect of the test substance is expressed as per cent inhibition relative to the control group.
The per cent inhibition of the piano playing syndrome is used as the response, and ED50 values are calculated by log-prohibit analysis.

SMILES	ED50
CC1(C)CC(=O)N(CCCCN2CCN(c3ncccn3)CC2)C(=O)C1 [gepirone, reference compound]	32 µmol/kg
O=C1c2ccccc2S(=O)(=O)N1CCCCN1CCN(c2ncccn2)CC1 [ipsapirone, reference compound]	26 µmol/kg

What follows are compounds tested against T2, serotonin 5-HT1A receptors (Rattus norvegicus, UniProt P19327) (assay: Inhibition of 3H-8-OHDPAT binding to serotonin 5-HT1A receptors in rat brain in vitro). Conditions: 3H-8-OHDPAT 1 nM, rat brain membranes minus cerebellum, 37° C., 15 min; read-out: IC50 (3H 8-OH DPAT binding).
T2 construct: membranes from rat brain minus cerebellum; from tissue; host or cells: brain minus cerebellum of male Wistar (Mol:Wist) rats, membranes
T2 sequence (P19327 1-422): T1 sequence (P19327 1-422)
Experimental: INHIBITION OF ^3 H-8-OHDPAT BINDING TO SEROTONIN 5-HT1A RECEPTORS IN A RAT BRAIN IN VITRO
By this method the inhibition by drugs of the binding of ^3 H-8-OHDPAT (1 nM) to serotonin 5-HT1A receptors in membranes from rat brain minus cerebellum is determined in vitro.
Male Wistar (Mol:Wist) rats (125-250 g) are sacrificed and the brain is dissected and weighed. The brain tissue minus cerebellum is homogenized (Ultra Turrax, 20 sec) in 10 ml of ice cold 50 mM Tris buffer pH 8.0 (at 25° C.) containing 120 mM NaCl, 4 mM CaCl2 and 4 mM MgCl2. The homogenate is centrifuged at 20,000 g for 10 min at 4° C. The pellet is homogenized in 10 ml of buffer and incubated at 37° C. for 10 min. The homogenate is centrifuged as above and the pellet is homogenized in 100 vol (w/v) ice cold buffer containing 10 μ M of parglyine.
Incubation tubes kept on ice in triplicate receive 100 μl of drug solution in water (or water for total binding) and 1000 μ l of tissue suspension (final tissue content corresponds to 10 mg original tissue). The binding experiment is initiated by addition of 100 μ l of ^3 H-8-OHDPAT (final concentration 1 nM) and by placing the tubes in a 37° C. water bath. After incubation for 15 min the samples are filtered under vacuum (0-50 mBar) through Whatman GF/F filters ([…]). The tubes are rinsed with 5 ml ice cold 0.9% NaCl which are then poured on the filters. Thereafter, the filters are washed with 2×5 ml 0.9% NaCl. The filters are placed in counting vials and 4 ml of appropriate scintillation fluid (e.g. Picofluor™15) are added. After shaking for 1 h and storage 2 h in the dark the content of radioactivity is determined by liquid scintillation counting. Specific binding is obtained by subtracting the nonspecific binding in the presence of 10 μ M of 5-HT.
For determination of the inhibition of binding five concentrations of drugs covering 3 decades are used.
The IC50 -value is determined as the concentration, at which the binding is 50% of the total binding in control samples minus the nonspecific binding in the presence of 10 μM of 5-HT.
^3 H-8-OHDPAT from Amersham International plc. England. Specific activity approximately 200 Ci/mmol).

IC50	SMILES
5.8 nM	COc1ccccc1N1CCN(CCCCC2CNc3cc(Cl)ccc32)CC1 (stereo not shown) [Compound 3f, 6-chloro-3-[4-[4-(2-methoxyphenyl)-1-piperazinyl]-1-butyl]-1H-2,3-dihydroindole]
14 nM	c1cc2c(c(N3CCN(CCCCc4c[nH]c5ccccc45)CC3)c1)OCC2 [Compound 2b, 3-[4-[4-(2,3-dihydro-7-benzofuranyl)-1-piperazinyl]-1-butyl]-1H-indole]
35 nM	COc1ccccc1N1CCN(CCCCC2CN(C(C)=O)c3ccccc32)CC1 (stereo not shown) [Compound 5a, 1-Acetyl-3-[4-[4-(2-methoxyphenyl)-1-piperazinyl]-1-butyl]-1H-2,3-dihydroindole]
14 nM	CSc1ccccc1N1CCN(CCCCC2CNc3ccccc32)CC1 (stereo not shown) [Compound 3b, 3-[4-[4-(2-methylthiophenyl)-1-piperazinyl]-1-butyl]-1H-2,3-dihydroindole]
8.6 nM	COc1ccccc1N1CCN(CCCCc2n[nH]c3ccc(C(F)(F)F)cc23)CC1 [Compound 9a, 3-[4-[4-(2-methoxyphenyl)-1-piperazinyl]-1-butyl]-5-trifluoromethyl-1H-indazole]
15 nM	Fc1ccc2[nH]cc(CCCCN3CCN(c4cccc5c4OCC5)CC3)c2c1 [Compound 2e]
90 nM	COc1cccc(N2CCN(CCCCC3CNc4ccccc43)CC2)c1OC (stereo not shown) [Compound 3h, 3-[4-[4-(2,3-dimethoxyphenyl)-1-piperazinyl]-1-butyl]-1H-2,3-dihydroindole]
51 nM	COc1ccccc1N1CCN(CCCCC2C(=O)Nc3ccccc32)CC1 (stereo not shown) [Compound 8a, 3-[4-[4-(2-methoxyphenyl)-1-piperazinyl]-1-butyl]-1H-2,3-dihydroindol-2-on]
17 nM	CC(C)Oc1ccccc1N1CCN(CCCCC2CNc3ccccc32)CC1 (stereo not shown) [Compound 3d, 3-[4-[4-(2-isopropyloxyphenyl)-1-piperazinyl]-1-butyl]-1H-2,3-dihydroindole]
3.5 nM	c1ccc2c(c1)NCC2CCCCN1CCN(c2cccc3c2OCCO3)CC1 (single isomer, unassigned; (+)) [Compound 7c, (+)-3-[4-[4-(1,4-benzodioxan-5-yl)-1-piperazinyl]-1-butyl]-1H-2,3-dihydroindole]
43 nM	COc1ccccc1N1CCN(CCCCC2CN(C)c3ccccc32)CC1 (stereo not shown) [Compound 6a, 3-[4-[4-(2-methoxyphenyl)-1-piperazinyl]-1-butyl]-1-methyl-1H-2,3-dihydroindole]
10 nM	COc1ccccc1N1CCN(CCCCc2c[nH]c3cc(Cl)ccc23)CC1 [Compound 1b, 6-Chloro-3-[4-[4-(2-methoxyphenyl)-1-piperazinyl]-1-butyl]-1H-indole]
5.7 nM	c1cc2c(c(N3CCN(CCCCc4c[nH]c5ccccc45)CC3)c1)OCCO2 [Compound 2c, 3-[4-[4-(1,4-benzodioxan-5-yl)-1-piperazinyl]-1-butyl]-1H-indole]
9.2 nM	COc1ccccc1N1CCN(CCCCC2CNc3ccc(Cl)cc32)CC1 (stereo not shown) [Compound 3e, 5-chloro-3-[4-[4-(2-methoxyphenyl)-1-piperazinyl]-1-butyl]-1H-2,3-dihydroindole]
4.4 nM	Fc1ccc2c(c1)C(CCCCN1CCN(c3cccc4c3OCCO4)CC1)CN2 (stereo not shown) [Compound 3l, 3-[4-[4-(1,4-benzodioxan-5-yl)-1-piperazinyl]-1-butyl]-5-fluoro-1H-2,3-dihydroindole]
5.7 nM	Fc1ccc2c(c1)C(CCCCN1CCN(c3cccc4c3OCC4)CC1)CN2 (stereo not shown) [Compound 3m, 3-[4-[4-(2,3-dihydro-7-benzofuranyl)-1-piperazinyl]-1-butyl]-5-fluoro-1H-2,3-dihydroindole]
17 nM	COc1ccccc1N1CCN(CCCCC2CNc3ccc(F)cc32)CC1 (stereo not shown) [Compound 3g, 5-fluoro-3-[4-[4-(2-methoxyphenyl)-1-piperazinyl]-1-butyl]-1H-2,3-dihydroindole]
17 nM	Oc1ccccc1N1CCN(CCCCC2CNc3ccccc32)CC1 (stereo not shown) [Compound 4a, 3-[4-[4-(2-hydroxyphenyl)-1-piperazinyl]-1-butyl]-1H-2,3-dihydroindole]
11 nM	COc1ccccc1N1CCN(CCCCc2c[nH]c3ccc(F)cc23)CC1 [Compound 1a, 5-Fluoro-3-[4-[4-(2-methoxyphenyl)-1-piperazinyl]-1-butyl]-1 H-indole]
3.1 nM	c1ccc2c(c1)NCC2CCCCN1CCN(c2cccc3c2OCCO3)CC1 (single isomer, unassigned; (-)) [Compound 7d, (-)-b 3-[4-[4-(1,4-benzodioxan-5-yl)-1-piperazinyl]-1-butyl]-1H-2,3-dihydroindole]
7.6 nM	Clc1ccc2c(c1)C(CCCCN1CCN(c3cccc4c3OCCO4)CC1)CN2 (stereo not shown) [Compound 3k, 3-[4-[4-(1,4-benzodioxan-5-yl)-1-piperazinyl]-1-butyl]-5-chloro-1H-2,3-dihydroindole]
3.7 nM	Fc1ccc2[nH]cc(CCCCN3CCN(c4cccc5c4OCCO5)CC3)c2c1 [Compound 2d, 3-[4-[4-(1,4-benzodioxan-5-yl)-1-piperazinyl]-1-butyl]-5-fluoro-1H-indole]

SMILES	IC50
COc1ccccc1N1CCN(CCCCc2c[nH]c3ccccc23)CC1 [Compound 2a, 3-[4[4-(2-methoxyphenyl)-1-piperazinyl]-1-butyl]-1H-indole]	17 nM
O=C1c2ccccc2S(=O)(=O)N1CCCCN1CCN(c2ncccn2)CC1 [ipsapirone, reference compound]	17 nM

These compounds were tested against T1, 5-HT1A (assay: Generalization to discriminative stimulus properties induced by 8-OHDPAT in rats (agonism)). Conditions: rat, sc, read-out: ED50, 8-OH DPAT cue agonism.
Assay type: in vivo, Male Wistar rats
Parameters: from tissue; host or cells: whole living animal, male Wistar rats, s.c. dosing
Description: GENERALIZATION TO DISCRIMINATIVE STIMULUS PROPERTIES INDUCED BY 8-OHDPAT IN RATS.
This test model is used to determine the agonist effects of a test compound on 5-HT1A receptors in vivo. A related method is described by Tricklebank, M. D., J. Neill, E. J. Kidd and J. R. Fozard, Eur. J. Pharmacol. 133, 37-56, 1987; Arnt, J., Pharmacology & Toxicology 64, 165-172, 1989.
The procedure is the same as for the antagonism test mentioned above, except that the test compound is substituted for 8-OHDPAT and injected s.c. usually 30 minutes or 45 minutes respectively before beginning of the test.
The per cent drug response obtained for each dose of test compound is used to calculate ED50 values by log-probit analysis.

SMILES	ED50
CC1(C)CC(=O)N(CCCCN2CCN(c3ncccn3)CC2)C(=O)C1 [gepirone, reference compound]	0.81 µmol/kg

Same assay, conditions: rat, sc, usually 30 or 45 min before test; substituted for 8-OHDPAT; per cent drug response; read-out: ED50, 8-OH DPAT cue agonism

SMILES	ED50
O=C1c2ccccc2S(=O)(=O)N1CCCCN1CCN(c2ncccn2)CC1 [ipsapirone, reference compound]	1.8 µmol/kg

From patent US5002948A, “3-[4-[4-substituted-1-piperazinyl]-1-butyl]-1H-2,3-dihydroindoles” (H. Lundbeck A/S, priority 1988, dated 1991)
